Three compounds from US7148218B2 (priority 2001, dated 2006) can be followed below.

Where two headings read alike, the source gives them in different places.

Holding throughout (experiment): cells
Experiment [1] concerns 1A9 ovarian carcinoma. In kind it is cell-based, human. The settings on record: 3-day exposure, average of two or more separate experiments. The source says: (§1) As indicated above, all of the compounds of formula I are anti-tumor agents and are, therefore, useful in inhibiting the growth of various lymphomas, sarcomas, carcinomas, myelomas, and leukemia cell lines. […] This assay was adapted from the 60 cell line assay used by the National Cancer Institute (NCI) with the following modifications: • 1) four cell lines representative for the important tumor types, viz., MIP 101 colon carcinoma, HCT 116 colon carcinoma, 1A9 ovarian carcinoma and 1A9PTX22 ovarian carcinoma, were utilized; and 2) a tetrazolium derivative, viz., MTT, was utilized to determine cell density.
(§2) The ADGMA compares the number of viable cells following a 3-day exposure to a test compound relative to the number of cells present at the time the test compound was added. […] The absorbance at 540 nm (A540) of the formazan derivative is proportional to the number of viable cells. The IC50 for a test compound is the concentration of compound required to reduce the final cell number to 50% of the final control cell number. If cell proliferation is inhibited, the assay further defines compounds as cytostatic (cell number after 3-day compound incubation >cell number at time of compound addition) or cytotoxic (cell number after 3-day compound incubation <cell number at time of compound addition).
(§3) The HCT 116 colon carcinoma cell line was obtained from the American Type Culture Collection (ATCC, Rockville, Md.). The MIP 101 colon carcinoma cell line was obtained from Dr. Robert Kramer (Bristol Meyers Squibb) and was previously described (Niles R M, Wilhelm S A, Steele G D JR, Burke B, Christensen T, Dexter D, O'Brien M J, Thomas P, Zamcheck N. Isolation and characterization of an undifferentiated human colon carcinoma cell line (MIP-101). Cancer Invest. 1987;5(6):545–52.). The 1A9 and the 1A9PTX22 ovarian tumor cell lines were obtained from Dr. Tito Fojo, Medicine Branch, Division of Clinical Sciences, National Cancer Institute, National Institutes of Health, Bethesda, Md. 20892. The 1A9 is a clone of the ovarian carcinoma cell line, A2780 (Giannakakou P, Sackett, D L, Kang Y-K, Zhan Z, Buters J T M, Fojo T, Poruchynsky MS. Paclitaxel-resistant human ovarian cancer cells have mutant δ-tubulins that impaired paclitaxel-driven polymerization. J. Biol. Chem. 1997, 272(4):17118–17125). The 1A9PTX22 subline was isolated as an individual clone from the 1A9 cell line in a single step selection by exposure to 5 ng/mL paclitaxel in the presence of 5 μg/mL of verapamil. All cell lines were used between passages 4–20 following thawing. MIP-101 colon carcinoma, HCT 116 colon carcinoma, 1A9 ovarian carcinoma and 1A9PTX22 ovarian carcinoma cell lines are maintained and plated in RPMI 1640 medium containing 10% fetal bovine serum.
(§4) Cells are trypsinized and counted using a hemacytometer to determine cell concentrations. Cells were then plated in their respective maintenance media (200 μL/well) in 96-well plates at the following concentrations: MIP-101, 2000 cells/well; HCT 116, 2000 cells/well; 1A9, 10000 cells/well; and 1A9PTX22, 10000 cells/well. […] Initial cell densities, assayed one day after plating, are roughly 0.10–0.20 A540 absorbance units greater than the media blank. Ninety-six well plates were seeded on day 0 and the test compounds are added on day 1. A “time 0” plate was created that received media only in row A and one cell line/row in rows B–E. The “time 0” plate was processed 24 hours after plating (at the time when drugs were added to experimental plates), as follows: 5 micoliters of the MTT stock solution (0.5 mg/mL in PBS) was added to each well and then incubated for three hours at 37° C., 5% CO2, in a humidified environment. Media was then carefully and completely removed. Plates were allowed to dry in the dark. DMSO (dimethylsulfoxide) was added to each well (100 μL/well) and plates were placed on an orbital shaker for 2 hours. […]

Experiment [2] has as its system MIP 101 colon carcinoma. The class given is cell-based, human. Conditions: 3-day exposure, average of two or more separate experiments, read-out: IC50 MIP101.
Excerpt: as §1, §2, §3, §4

Experiment [3] relates to 1A9PTX22 ovarian carcinoma. The class given is cell-based, human. The settings on record: 3-day exposure, paclitaxel-resistant subline, average of two or more separate experiments.
Excerpt: as §1, §2, §3, §4

Experiment [4] deals with HCT 116 colon carcinoma. In kind it is cell-based. The settings on record: 3-day exposure, average of two or more separate experiments, read-out: IC50 HCT116.
Excerpt: as §1, §2
The HCT 116 colon carcinoma cell line was obtained from the American Type Culture Collection (ATCC, Rockville, Md.). The MIP 101 colon carcinoma cell line was obtained from Dr. Robert Kramer (Bristol Meyers Squibb) and was previously described (Niles R M, Wilhelm S A, Steele G D JR, Burke B, Christensen T, Dexter D, O'Brien M J, Thomas P, Zamcheck N. Isolation and characterization of an undifferentiated human colon carcinoma cell line (MIP-101). Cancer Invest. 1987;5(6):545–52.). […]
Cells are trypsinized and counted using a hemacytometer to determine cell concentrations. […] Initial cell densities, assayed one day after plating, are roughly 0.10–0.20 A540 absorbance units greater than the media blank. […]

The term IC50 denotes the concentration needed to halve the response being measured. On to `C=C/C=C\[C@H](C)C(OC(N)=O)C(C)C(O)C(C)C(=O)N(C)C[C@H](C)[C@@H](O)[C@@H](C)/C=C\C(O)C[C@@H]1OC(=O)[C@H](C)C(O)C1C` (stereo partly drawn) [Ex. 2, (2R,3S,4R,5S,7S,8Z)-13-[[(2R,3S,4S,5S,6S,7Z)-5-[(aminocarbonyl)oxy]-3-hydroxy-2,4,6-trimethyl-1-oxo-7,9-decadienyl]methylamino]-3,5,7,11-tetrahydroxy-2,4,10,12-tetramethyl-8-tridecenoic acid δ-lactone], for which the 50% inhibitory concentration (IC50) in experiment [1] (Homo sapiens, 72 h) turned out to be 4000 nM; in experiment [2] (Homo sapiens, 72 h), 20000 nM; in experiment [3] (Homo sapiens, 1A9/ptx-22, 72 h) it was 6000 nM; in experiment [4] (Homo sapiens, HCT-116, 72 h), 13000 nM.
For the compound `CC(=O)O[C@H]1C(=O)[C@@]2(C)[C@H]([C@H](OC(=O)c3ccccc3)[C@]3(O)C[C@H](OC(=O)[C@H](O)[C@@H](NC(=O)c4ccccc4)c4ccccc4)C(C)=C1C3(C)C)[C@]1(OC(C)=O)CO[C@@H]1C[C@@H]2O` [paclitaxel, reference compound], the IC50 in experiment [1] (Homo sapiens, 72 h) was found to be 47 nM; in experiment [2] (Homo sapiens, 72 h), 200 nM; in experiment [3] (Homo sapiens, 1A9/ptx-22, 72 h), 1 nM; in experiment [4] (Homo sapiens, HCT-116, 72 h) it was 0.3 nM.
As for “(2R,3S,4S,5S,7S,8Z,10S,11S,12S,13Z,16S,17R,18S,19S,20S)-19-[(aminocarbonyl)oxy]-3,5,7,11,17-pentahydroxy-2,3,4,10,12,14,16,18,20-nonamethyl-21-(phenylmethoxy)-8,13-heneicosadienoic acid δ-lactone [Ex. 1]”, the IC50 in experiment [1] turned out to be 30 nM; in experiment [2] it was 3800 nM; in experiment [3] it was 180 nM; in experiment [4], 200 nM.
